From PMC5217330, “Impact of colistin plasma levels on the clinical outcome of patients with infections caused by extremely drug-resistant Pseudomonas aeruginosa” (BMC Infectious Diseases, 2017)
Where two headings read alike, the source gives them in different places. Where a SMILES comes first, the peptide text is derived from it.

Legend:
[1] = Colistin plasma concentration at steady state in patients treated with intravenous CMS (HPLC); assay type: in vivo, human
Procedure: CMS for injection was used and dosed in millions of IU throughout the study. The drug was administered intravenously in 100 mL of normal saline over 30 min in the commercially available colistimethate formulation for injection (GES GenéricosEspañoles®), with each vial containing 80 mg CMS (equivalent to 1 million IU of CMS and about 30 mg of colistin base activity). As the policy of our hospital, CMS is reserved for the treatment of infections due to bacteria that are resistant to carbapenems and other antipseudomonal antibiotics except colistin and, eventually, aminoglycosides. Dose selection was at the discretion of the responsible clinicians. CMS doses ranged from 1 to 3 million IU every 8 h (3–9 millions IU daily). The following dose adjustments were made according to the package insert’s recommendations in patients with impaired renal function: GFR ≥ 76 mL/min/1.73 m^2, 4–6 million IU daily in three doses; GFR 40 to 75 mL/min/1.73 m^2, 2–3 million IU daily in 2 doses; GFR 25–40 mL/min/1.73 m^2, 1.5–2 million IU daily divided into 1 or 2 doses; and GFR < 25 mL/min/1.73 m^2, 0.6–1 million IU daily every 36 h. No loading-dose was administered to any included patient.
Measurement of the plasma colistin concentration was performed at the fourth day of treatment, when was assumed that the colistin concentrations had reached the steady state. The colistin plasma trough concentrations (Cmin) were measured just before the administration of CMS. The maximum plasma concentrations (Cmax) were obtained 30 min after the end of the CMS infusion (1 h after the start of infusion). A specialized nurse performed extraction of blood. Samples were immediately placed in a portable refrigerator (4 °C) to be processed in a refrigerated centrifuge (4 °C) at the laboratory. Colistin concentrations in the plasma were determined using a validated high-performance liquid chromatography (HPLC) method as reportedby Li et al., with minor modifications as described previously by our group.
Following Couet et al., Cmin was chosen because it is more convenient from a practical view point and because due to the colistin pharmacokinetic behavior, there can be CMS hydrolysis to colistinafter sample extraction resulting in an overestimation of the real in vivo colistin plasma concentration. This phenomenon can be minimized when CMS plasma concentrations are lower what occurs at the end of the dosing interval (when the Cmin is measured). Throughout the present paper, we have used the term “average colistin concentration at steady state (Css)” to refer to the Cmin.

[2] = in vivo
Procedure: The serum creatinine level and estimated glomerular filtration rate (GFR) were recorded at baseline, at the moment of colistin plasma extraction (day 4), on day 7 and at the EOT. […] The RIFLE criteria (Table 1) estimated with exclusion of the urinary output criterion, were used for the detection and stratification of acute kidney injury (AKI) [22]. AKI during CMS treatment was defined as a 1.5-fold or more increase in serum creatinine and/or a decrease in the GFR of 25% or more. These criteria needed to be fulfilled for at least 2 consecutive measurements 24 h apart during CMS treatment.

[3] = tested on: colistin-susceptible XDR P. aeruginosa; assay: Clinical outcome (clinical cure, 30-day mortality) of patients with XDR P. aeruginosa infections treated with intravenous CMS; assay type: in vivo, human
Procedure: A prospective observational cohort study was conducted between January 2009 and January 2013 at a 450-bed teaching hospital in Barcelona, Spain. All patients who had microbiologically documented infections due to colistin-susceptible XDR-P.aeruginosa and were administered CMS for at least 72 h, were included in the study. Only microbiologically documented and clinically defined infections caused by colistin-susceptible XDR P. aeruginosa treated with colistin were considered. Acute bronchitis and tracheitis were excluded from the analysis due to the difficulty in differentiating true infection from colonization in patients with chronic obstructive pulmonary disease (COPD).
The primary end point was clinical cure, and the secondary 30-day all-cause mortality.
Clinical cure and failure were defined as resolution and persistence/worsening, respectively, of symptoms and signs of infection.
Thirty-day mortality was defined as death occurring within 30 days of beginning CMS treatment.
Clinical cure was defined as having resolved clinical signs and symptoms and/or no need for additional antibiotic therapy. Clinical failure was defined as an inadequate response to antibiotic therapy, with worsening, new/recurrent signs and symptoms or death.

CC[C@H](C)CCCCC(=O)N[C@@H](CCN)C(=O)N[C@H](C(=O)N[C@@H](CCN)C(=O)N[C@H]1CCNC(=O)[C@H]([C@@H](C)O)NC(=O)[C@H](CCN)NC(=O)[C@H](CCN)NC(=O)[C@H](CC(C)C)NC(=O)[C@@H](CC(C)C)NC(=O)[C@H](CCN)NC1=O)[C@@H](C)O [colistin] (HELM PEPTIDE1{[CC[C@H](C)CCCCC(=O)[*:2]].[Dab].T.[Dab].[Dab].[Dab].[dL].L.[Dab].[Dab].T}$PEPTIDE1,PEPTIDE1,5:R3-11:R2$$$V2.0)
Css/MIC ([1]; all included patients n = 91, mean ± SD, SD): 3.43 ± 2.91
Cmax ([1]; human, iv, day 4, 30 min after end of 30-min CMS infusion, plasma, HPLC, mean ± SD, SD, read-out: Cmax (maximum plasma concentration)): 1660 ± 1400 ng/mL
level at 96 h ([1]; human, plasma, iv, day 4, just before administration of CMS, plasma, HPLC, mean ± SD, SD, read-out: Cmin (colistin plasma trough concentration)): 1710 ± 1420 ng/mL
level at 96 h ([1]; human, plasma, iv, patients who achieved clinical cure, mean (SD), abstract, SD, read-out: Css): 1490 ng/mL
level at 96 h ([1]; human, plasma, iv, patients who did not achieve clinical cure, mean (SD), p = 0.01, abstract, SD, read-out: Css): 2420 ng/mL
level at 96 h ([1]; human, plasma, iv, patients who died n = 28, day 4 trough, plasma, HPLC, mean ± SD, P = 0.011 vs survived, read-out: Css): 2100 ng/mL
level at 96 h ([1]; human, plasma, iv, patients who survived n = 63, day 4 trough, plasma, HPLC, mean ± SD, read-out: Css): 1400 ng/mL
Css/MIC ([1]; patients who died n = 28, mean ± SD, P = 0.048 vs survived, SD): 4.2 ± 2.7
Css > 1.25 (mg/L), patients ([1]; patients who survived n = 63): 28 (44.4) n (%)
Css/MIC ([1]; patients who survived n = 63, mean ± SD, SD): 3.1 ± 3
Css/MIC ([1]; patients with clinical cure n = 72, mean ± SD, SD): 3.13 ± 2.9
Css/MIC ([1]; patients with clinical failure n = 19, mean ± SD, P = 0.03 vs cure, SD): 4.61 ± 2.86

colistimethate sodium [CMS]
AKI RIFLE F at the EOT, patients [2]: 11%
AKI RIFLE F on day 7 of treatment, patients [2]: 2.2%
AKI RIFLE I at the EOT, patients [2]: 29.7%
AKI RIFLE I on day 7 of treatment, patients [2]: 9.9%
AKI RIFLE R at the EOT, patients [2]: 13.2%
AKI RIFLE R on day 7 of treatment, patients [2]: 20.9%
CMS dose modified because of AKI, patients [2]: 17.5%
GFR returned to baseline at the end of follow-up, patients [2]: 35.1%
Impairment of renal function during CMS treatment at the EOT, patients [2]: 53.8%
Impairment of renal function during CMS treatment on day 7, patients [2]: 33%
Patients with AKI at day 7, F (Failure) [2]: 2 (2.2) n (%)
Patients with AKI at day 7, I (Injury) [2]: 9 (9.9) n (%)
Patients with AKI at day 7, R (Risk) [2]: 19 (20.9) n (%)
Patients with AKI at the EOT, F (Failure) [2]: 10 (11) n (%)
Patients with AKI at the EOT, I (Injury) [2]: 27 (27.7) n (%)
Patients with AKI at the EOT, R (Risk) [2]: 12 (13.2) n (%)
persisted with some grade of impairment of renal function at the end of follow-up, patients [2]: 2.1%
infection-related mortality rate ([3]; 13 patients died due to P. aeruginosa infection, n = 91): 14.3%
30-day all-cause mortality rate ([3]; 28 of 91 patients, i.v. CMS): 30.9%
